Test results published in patent US8728978B2, “Biocide compositions (IV)” (Cognis IP Management GmbH, priority 2009, dated 2014).

Experiment: Solubility of biocides in different solvents at 25° C.
Format: physicochemical
Description: Solubility of two fungicides, one herbicide and one insecticide in different solvents at 25° C. was tested.

[1] = solvent: C8-C10 fatty acid dimethylamide (Ex. C3)
[2] = solvent: Lactic acid dimethyl amide (Ex. C4)
[3] = solvent: Levulinic acid tetrahydrofurfuryl ester (Ex. 7)

| SMILES | Solubility of biocides [1] | Solubility of biocides [2] | Solubility of biocides [3] |
| --- | --- | --- | --- |
| O=C(NC(=O)c1c(F)cccc1F)Nc1ccc(OC(F)(F)C(F)OC(F)(F)F)c(Cl)c1 (stereo not drawn) [Novaluron] | 32 % b.w. | 22 % b.w. | 24 % b.w. |
| CCOc1cc(Oc2ccc(C(F)(F)F)cc2Cl)ccc1[N+](=O)[O-] [Oxyfluorfen] | 31 % b.w. | 23 % b.w. | 33 % b.w. |
